From patent US20250230151A1, “COMPOUNDS FOR CANCERS DRIVEN BY BRAF MUTATION” (THE BOARD OF TRUSTEES OF THE UNIVERSITY OF ILLINOIS, priority 2021, published 2025)
Like-named read-outs stand apart in the source and are kept apart here.

Legend:
A375 cells = assay: 72-hour cell viability assay (Alamar Blue), A375; format: cell-based, human; settings: for IC50: 72-hour incubation, Alamar Blue, V600E BRAF
Method in brief: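 Seed cells, adhere overnight; add compound (DMSO 1% final); incubate 72 h, 37° C., 5% CO2; assess viability with Alamar Blue. Raptinal ([…]) = dead control.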

HT29 cells = assay: 72-hour cell viability assay (Alamar Blue), HT29; format: cell-based; settings: colon
Protocol: (§1) Cell Culture and reagents. All cell lines were grown in a 37° C., 5% CO2, humidified environment, in media containing 1% penicillin/streptomycin. Cell culture conditions are as follows: MDCK cells transfected with MDR1 (or ABCB1) were obtained from the Netherlands Cancer Institute (Amsterdam, The Netherlands) and maintained in DMEM with 10% fetal bovine serum (FBS, Gemini). Traditional cell lines A375, CHL-1, B16F10, and U118MG were grown in DMEM with 10% FBS, SK-MEL-28, U87 and T98G in EMEM with 10% FBS, AM-38 in EMEM with 20% HI-FBS (Gibco), HT29 in McCoy's 5A with 10% FBS, HCT116 in RPMI with 10% FBS. Compounds were dissolved in DMSO (1% final concentration, Sigma-Aldrich) for cell culture studies.
(§2) Cell viability assays. Cells were harvested, seeded in a 96-well plate and allowed to adhere overnight. Compound was added to each well in DMSO (1% final concentration). Cells were incubated for 72 hours before viability was assessed by the Alamar Blue Assay. Raptinal ([…]) was used as a dead control.

AM-38 cells = assay: 72-hour cell viability assay (Alamar Blue), AM-38; format: cell-based; settings: glioma
Protocol: as §1, §2

SK-MEL-28 cells = assay: 72-hour cell viability assay (Alamar Blue), SK-MEL-28; format: cell-based; settings: melanoma
Protocol: as §1, §2

CHL-1 cells = assay: 72-hour cell viability assay (Alamar Blue), CHL-1; format: cell-based
Protocol: as §1, §2

T98G cells = assay: 72-hour cell viability assay (Alamar Blue), T98G; format: cell-based; settings: WT BRAF
Protocol: as §1, §2

U118MG cells = assay: 72-hour cell viability assay (Alamar Blue), U118MG; format: cell-based; settings: WT BRAF
Protocol: as §1, §2

U87 cells = assay: 72-hour cell viability assay (Alamar Blue), U87; format: cell-based; settings: WT BRAF
Protocol: as §1, §2

P-gp = molecular target: T1, P-gp (Homo sapiens, UniProt P08183); assay: MDR1-MDCK P-gp transwell bidirectional transport assay; format: in vitro ADME; settings: for ER (efflux ratio) / Papp A-B / Papp B-A: MDR1-MDCK; for ER (efflux ratio) / Papp A-B / Papp B-A / Papp A→B at 90 min, 10 µM / Papp B→A at 90 min, 10 µM / efflux ratio at 90 min, 10 µM: 10 μM, 90 min; for Papp A→B at 90 min, 10 µM / Papp B→A at 90 min, 10 µM / efflux ratio at 90 min, 10 µM / Papp at 90 min, 10 µM: dog; for Papp A→B at 90 min, 10 µM / Papp B→A at 90 min, 10 µM / efflux ratio at 90 min, 10 µM: MDCK-MDR1, MDR1-MDCK; for efflux ratio at 90 min, 10 µM: read-out: ER (efflux ratio) (converted); for Papp at 90 min, 10 µM: MDCK-MDR1, range of Papp A-B to B-A, read-out: cell culture permeabilities
T1 construct: host or cells: MDCK (MDR1-MDCK)
T1 sequence (P08183 whole entry): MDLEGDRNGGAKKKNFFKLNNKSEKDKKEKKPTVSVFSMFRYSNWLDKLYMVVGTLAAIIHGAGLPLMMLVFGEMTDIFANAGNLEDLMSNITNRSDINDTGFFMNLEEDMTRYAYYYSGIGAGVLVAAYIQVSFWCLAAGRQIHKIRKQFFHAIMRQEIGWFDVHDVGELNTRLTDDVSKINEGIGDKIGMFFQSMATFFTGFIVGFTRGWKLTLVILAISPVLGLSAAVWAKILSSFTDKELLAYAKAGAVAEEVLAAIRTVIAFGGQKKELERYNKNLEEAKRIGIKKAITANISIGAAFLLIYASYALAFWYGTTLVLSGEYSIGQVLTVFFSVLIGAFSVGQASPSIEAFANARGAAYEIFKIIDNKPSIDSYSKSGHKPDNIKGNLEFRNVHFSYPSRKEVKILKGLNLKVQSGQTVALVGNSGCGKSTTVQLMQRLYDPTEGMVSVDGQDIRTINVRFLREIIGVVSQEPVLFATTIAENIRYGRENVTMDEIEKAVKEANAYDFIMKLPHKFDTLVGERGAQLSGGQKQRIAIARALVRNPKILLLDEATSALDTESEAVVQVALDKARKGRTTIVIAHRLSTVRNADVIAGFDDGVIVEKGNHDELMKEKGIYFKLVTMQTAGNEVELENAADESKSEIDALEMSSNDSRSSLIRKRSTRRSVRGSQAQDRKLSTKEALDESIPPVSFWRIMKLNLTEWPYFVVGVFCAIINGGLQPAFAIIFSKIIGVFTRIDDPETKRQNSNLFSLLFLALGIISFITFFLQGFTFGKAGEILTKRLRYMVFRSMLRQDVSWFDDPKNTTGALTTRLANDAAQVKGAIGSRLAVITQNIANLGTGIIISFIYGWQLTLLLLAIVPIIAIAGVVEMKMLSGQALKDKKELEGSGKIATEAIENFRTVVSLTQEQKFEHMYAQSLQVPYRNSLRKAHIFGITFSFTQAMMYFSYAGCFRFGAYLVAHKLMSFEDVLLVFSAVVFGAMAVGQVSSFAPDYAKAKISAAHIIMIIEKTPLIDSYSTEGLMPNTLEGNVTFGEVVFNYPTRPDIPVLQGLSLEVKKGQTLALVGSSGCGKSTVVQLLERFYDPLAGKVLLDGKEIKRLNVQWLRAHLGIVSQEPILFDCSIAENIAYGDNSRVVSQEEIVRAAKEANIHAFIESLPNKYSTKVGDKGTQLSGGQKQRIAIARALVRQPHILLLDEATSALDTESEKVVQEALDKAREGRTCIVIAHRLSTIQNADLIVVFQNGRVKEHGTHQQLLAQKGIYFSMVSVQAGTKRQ
Method in brief: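 MDR1-MDCK monolayers grown 80-96 h on transwell filters; compounds at 10 μM final (1% DMSO) incubated 90 min at 37 °C with shaking, in apical-to-basolateral and basolateral-to-apical directions. Donor and receiver samples quantified by LC-MS/MS; monolayer integrity checked with Lucifer Yellow. Permeability and efflux ratio calculated.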

[1] = system: MAPK signaling (phospho-MEK1/2, phospho-ERK1/2) in A375 cells; assay: Immunoblotting of MEK1/2 and ERK1/2 phosphorylation, A375; format: cell-based, human; settings: for inhibition of ERK1/2 phosphorylation after 24 h: A375, highest concentrations (10 μM); for dose-response of phospho-ERK1/2 inhibition: A375, 0.01-10 μM, 1 and 24 h; for inhibition of MAPK signaling (MEK1/2 and ERK1/2 phosphorylation): A375, 1 h of treatment
Protocol: Immunoblotting. Cells were lysed using RIPA buffer containing phosphatase (BioVision) and protease inhibitor cocktail (Calbiochem). Protein concentration was determined using the BCA assay (Pierce). Cell lysates containing […] of protein were loaded into each lane of 4% to 20% gradient gels (Bio-Rad) for SDS-PAGE. Proteins were transferred onto PDVF membrane for Western blot analysis. Blots were blocked with BSA for one hour followed by incubation with primary antibody overnight (dilution according to manufacturer's protocols), and then secondary antibody was incubated for one hour. Blots were then imaged with a ChemiDoc Touch (Bio-Rad) after incubation with SuperSignal West Pico Solution (ThermoFischer) following manufacturer's protocols. All antibodies were purchased from Cell Signaling Technology: p-ERK (9101S), ERK (4695S), p-MEK (9121S), MEK (8727S), vinculin (13901S) Rabbit IgG-HRP (7074), […] (5125).

[2] = Homo sapiens, HT-29, V600E BRAF
[3] = Homo sapiens, AM-38, V600E BRAF
[4] = Homo sapiens, SK-MEL-28, V600E BRAF
[5] = Homo sapiens, CHL-1, WT BRAF, melanoma, read-out: CHL-1 (WT) IC50
[6] = Homo sapiens, CHL-1, WT BRAF, read-out: CHL-1 IC50
[7] = Homo sapiens, T98G, glioma, read-out: T98G (WT) IC50
[8] = Homo sapiens, T98G, read-out: T98G IC50
[9] = Homo sapiens, U-118-MG, glioma, read-out: U118MG (WT) IC50
[10] = Homo sapiens, U-118-MG, read-out: U118MG IC50
[11] = Homo sapiens, U-87 MG, read-out: U87 IC50
[12] = Homo sapiens, glioma, read-out: U87 (WT) IC50

Row | Structure (SMILES) | inhibition of ERK1/2 phosphorylation after 24 h [1] | IC50 (A375 cells; Homo sapiens, A-375, 72 h) [nM] | IC50 (HT29 cells; [2]) [nM] | IC50 (AM-38 cells; [3]) [nM] | IC50 (SK-MEL-28 cells; [4]) [nM] | IC50 (CHL-1 cells; [5]) [nM] | IC50 (CHL-1 cells; [6]) [nM] | IC50 (T98G cells; [7]) [nM] | IC50 (T98G cells; [8]) [nM] | IC50 (U118MG cells; [9]) [nM] | IC50 (U118MG cells; [10]) [nM] | IC50 (U87 cells; [11]) [nM] | IC50 (U87 cells; [12]) [nM] | Papp A→B at 90 min, 10 µM (P-gp) [×10⁻⁶ cm/s] | Papp B→A at 90 min, 10 µM (P-gp) [×10⁻⁶ cm/s] | efflux ratio at 90 min, 10 µM (P-gp) | Papp at 90 min, 10 µM (P-gp) [×10⁻⁶ cm/s] | dose-response of phospho-ERK1/2 inhibition [1] | inhibition of MAPK signaling (MEK1/2 and ERK1/2 phosphorylation) [1] | further results
1 | CC(C)(C)c1nc(-c2cccc(NS(=O)(=O)c3c(F)cccc3F)c2F)c(-c2ccnc(N)n2)s1 [Dabrafenib, reference compound] | diminished inhibition | – | – | – | – | – | – | – | – | – | – | – | – | – | – | – | – | – | – | IC50 (A375 cells): 7.46 ± 1.1 nM; IC50 (A375 cells; listed as 6-74): 5.38 ± 0.38 nM; % Emax (A375 cells; A375, 72-hour incubation): 65%; IC50 (HT29 cells; V600E BRAF): 4.74 ± 0.84 nM; IC50 (AM-38 cells; V600E BRAF): 6.84 ± 0.84 nM; IC50 (SK-MEL-28 cells; V600E BRAF): 4.76 ± 0.42 nM; IC50 (CHL-1 cells; WT BRAF, read-out: CHL-1 IC50): > 1000 nM; IC50 (T98G cells; read-out: T98G IC50): > 1000 nM; IC50 (U118MG cells; read-out: U118MG IC50): > 1000 nM; IC50 (U87 cells; read-out: U87 IC50): > 1000 nM; ER (efflux ratio) (P-gp): 17.94 ± 6.97; Papp A-B (P-gp): 1.26 ± 0.672 ×10⁻⁶ cm/s; Papp B-A (P-gp): 13.2 ± 1.63 ×10⁻⁶ cm/s; Papp A-B (P-gp; listed as 6-74): 1.257 ± 0.672 ×10⁻⁶ cm/s; Papp B-A (P-gp; listed as 6-74): 13.192 ± 1.632 ×10⁻⁶ cm/s; ER (efflux ratio) (P-gp; listed as dabrafenib): 17.9
2 | CCCS(=O)(=O)Nc1cc(Cl)cc(-c2nc(C(C)(C)C)sc2-c2ccnc(NCCCCC(=O)O)n2)c1F [6-263, 5-((4-(2-(tert-butyl)-4-(5-chloro-2-fluoro-3-(propylsulfonamido)phenyl)thiazol-5-yl)pyrimidin-2-yl)amino)pentanoic acid] | sustained | 27.3 ± 3.01 | 21.4 ± 4.21 | 93.2 ± 14.1 | 22.5 ± 1.2 | > 10000 | > 10000 | > 10000 | > 10000 | > 10000 | > 10000 | > 10000 | > 10000 | 2.15 ± 0.07 | 2.49 ± 0.435 | 1.17 | 2.2 to 2.5 | clear dose-dependent inhibition | strongly inhibited | –
3 | CCCS(=O)(=O)Nc1cc(Cl)cc(-c2nc(C(C)(C)C)sc2-c2ccnc(N)n2)c1F [6-261, N-(3-(5-(2-aminopyrimidin-4-yl)-2-(tert-butyl)thiazol-4-yl)-5-chloro-2-fluorophenyl)propane-1-sulfonamide] | sustained | 2.8 ± 0.53 | 1.67 ± 0.36 | 8.5 ± 1.2 | 2.35 ± 0.13 | > 1000 | > 1000 | > 1000 | > 1000 | > 1000 | > 1000 | > 1000 | > 1000 | 4.92 ± 0.806 | 6.42 ± 2.45 | 1.4 | 4.9 to 6.4 | clear dose-dependent inhibition | strongly inhibited | –
